Test system: ddY-SPF strain male mouse
Assay: Acute toxicity test
Type: in vivo
Conditions: ddY-SPF strain male mouse (weight: 25 to 30 g); administered orally as 0.5% tragacanth suspension
Procedure: Acute toxicity test • Acute toxicity of 3,6-0,0' - dipivaloyl - L - ascorbic acid of this invention is shown below. • Animal: ddY-SPF strain male mouse (weight: 25 to 30 g) • Method of administration: The compound is administered orally as 0.5% tragacanth suspension. • Acute toxicity: LDso 5000 mg/kg.

## CC(C)(C)C(=O)OC[C@H](O)[C@H]1OC(=O)C(O)=C1OC(=O)C(C)(C)C [3,6-0,0'-Dipivaloyl-L-ascorbic acid]
  Acute toxicity: LDso: 5000 mg/kg

Reference: patent EP0074411B1, “ASCORBIC ACID DERIVATIVES” (SANTEN PHARMACEUTICAL CO., LTD., priority 1981, dated 1982)
